The record followed here is patent US20250099407A1, “2-AMINO BENZOPHENONE DERIVATIVES FOR TARGETED FERROPTOSIS INDUCTION IN CANCER THERAPY” (INDIAN INSTITUTE OF TECHNOLOGY KANPUR, priority 2023, published 2025).

Common to all, as to assay type: cell-based
Assay [1] has as its system 4T1. In words: Cell viability, CellTiter-Glo assay, 4T1. Particulars: Mus musculus; 4T1, cell viability. On the procedure: (§1) The viability of screened cancer cells was recorded using a luminescence-based CellTiter-Glo® assay for the ATP quantification. The screening concentration of the molecule ranged from 100/10 μM to 45/4.5 nM with an 8-point-3-fold dilution series in DMEM media (>0.1% DMSO as control). Each experiment was conducted in more than two biological replicates with three technical replicates. The error bar is a representation of standard deviation among the technical replicates.
(§2) The viability of screened cancer cells was recorded using a luminescence-based CellTiter-Glo® assay for the ATP quantification. The screening concentration of IITK3002 ranged from 10 μM to 4.5 nM with an 8-point-3-fold dilution series in DMEM media (>0.1% DMSO as control). Each experiment was conducted in more than two biological replicates with three technical replicates. The error bar is a representation of standard deviation among the technical replicates.
(§3) a. […] In parallel, we have also synthesized the bromoacetamide (IITK3002) version of the lead molecules which is slightly more reactive with thiol nucleophiles when compared to chlorooacetamide warheads as depicted in FIG. 13. […] In addition, we also evaluated the molecules' antiproliferative potency against a panel of twelve different cancer phenotypes. […]
A general note: In ATP-based viability assays light output follows the ATP content of the culture.

The test system of assay [2] is MDA-MB-231. The assay is described as follows: Cell viability, CellTiter-Glo assay, MDA-MB-231. The following applies: Homo sapiens; MDA-MB-231, cell viability. On the procedure: as §1, §2, §3
The test system of assay [3] is Huh-7 cells. In words: Intracellular ROS, H2-DCFDA oxidation assay in Huh-7 cells. The following applies: Huh-7, 37° C., 30 min; IITK3001 and IITK3002 20 μM, H2O2 100 μM. As for the experimental part: We used fluorescence imaging-based oxidation of H2-DCFDA by ROS for assessing intracellular oxidative stress. Huh-7 cells were treated at 37° C. for 30 min with IITK3001 and IITK3002 (20 μM), H2O2 (100 μM), ^tertBuOOH (20 μM), NAC (0.5 mM) and 0.1% DMSO as control. Each experiment was conducted in more than two biological replicates with three technical replicates.
b. Effect of Thiols and Ferroptosis Modulators on the Hit Molecules' Antiproliferative Potency: Ferroptosis is directly controlled by the intracellular thiol concentrations in the form of cysteine and glutathione. Several oxidative mechanisms are well-wired in ferroptotic cell death and we set out to investigate the precise molecular mechanism of our lead molecules. Both cysteine and glutathione (GSH) are the enriched thiol-containing small molecule antioxidant system that are essential regulators of redox modulation in cells including ferroptosis. Further, the enzyme glutathione peroxidase 4 (GPX4) is well characterized to specifically quench the lipid peroxide equivalents in cells through the conversion of […] in cells thereby restoring the reduced environment in cells. Therefore, first, we assessed the ability of N-acetylcysteine (NAC) and GSH to suppress our lead molecules antiproliferative activity (FIG. 4a, b). We found a drastic reduction in the molecules' potency with IITK3001 (>1000-fold reduction) and IITK3002 (>500-fold reduction) (FIG. 14a, b). Supporting that, the addition of DL-Buthionine sulfoximine (BSO), an inhibitor of y-glutamylcysteine synthetase (glutathione biosynthesis) combination with our lead molecules potentiated the overall inhibitory capacity (FIG. 14a, b). […] Finally, we assessed the effect of Ferrostain-1 (Fer-1) and Liproxstatin-1 (Lip-1), antioxidants that function by trapping reactive radicals in cells, particularly lipid-peroxide radicals, and preventing the accumulation of lipid peroxides in cells. […] The accumulation of lipid peroxides and overall ROS was also detected using a fluorescence-based H2DCF-DA assay as depicted in FIG. 15. […]

Assay [4] concerns HCT116. In words: Cell viability, CellTiter-Glo assay, HCT116. The following applies: Homo sapiens, HCT-116. As for the experimental part:
as §1, §2, §3

Assay [5] has as its system A375. The assay is described as follows: Cell viability, CellTiter-Glo assay, A375. Particulars: Homo sapiens, A-375. As for the experimental part:
as §1, §2, §3

Assay [6] has as its system RPMI 8226. In words: Cell viability, CellTiter-Glo assay, RPMI 8226. Particulars: Homo sapiens; RPMI 8226, cell viability. On the procedure: as §1, §2, §3
Assay [7] deals with MCF7. The assay is described as follows: Cell viability, CellTiter-Glo assay, MCF7. Particulars: Homo sapiens. On the procedure:
as §1, §2, §3

In assay [8] the test system is cancer cells. In words: Antiproliferative potency against cancer cells / panel of cancer cell lines. On the procedure: as §1, §2
a. […] In parallel, we have also synthesized the bromoacetamide (IITK3002) version of the lead molecules which is slightly more reactive with thiol nucleophiles when compared to chlorooacetamide warheads as depicted in FIG. 13. […] In addition, we also evaluated the molecules' antiproliferative potency against a panel of twelve different cancer phenotypes. The set of cancer cell lines included liver, breast, colon, myeloma, bone, blood, skin, brain and prostate lineages (FIG. 2, 3, Table 1).

Where [9] appears, read: cell line not stated, read-out: EC50, inhibition of cancer cell proliferation.
Where [10] appears, read: range over twelve different cancer phenotypes, read-out: EC50 concentration range across panel of twelve cancer cell lines.

Read-outs that look alike come from different tables or passages of the source.

With `CN(C(=O)CCl)c1ccccc1C(=O)c1ccccc1` [IITK3001, N-(2-benzoylphenyl)-2-chloro-N-methylacetamide], the EC50 came out at 499 nM in assay [1]; 184 nM in assay [2]; 168 nM in assay [4]; 352 nM in assay [5]; 133 nM in assay [6]; 312 nM in assay [7]. Moreover, the EC50 in assay [8] (setting [9]) was 70 nM; in assay [8] (setting [10]), 132 to 490 nM. Besides, in assay [3], the “intracellular ROS, H2DCF-DA fluorescence intensity” value was “intracellular ROS generation”.
Turning to `CN(C(=O)CBr)c1ccccc1C(=O)c1ccccc1` [IITK3002, N-(2-benzoylphenyl)-2-bromo-N-methylacetamide], the EC50 in assay [1] is 66 nM; in assay [2], 26 nM; in assay [4] it was 37 nM; in assay [6], 39 nM; in assay [7] it was 20 nM; in assay [8] (setting [9]), 3 nM. Further, the EC50 in assay [8] (setting [10]) fell in the range of 20 to 132 nM. The “intracellular ROS, H2DCF-DA fluorescence intensity” value in assay [3] was “intracellular ROS generation”.
